These results are taken from patent US12371428B2 (Exelixis, Inc., priority 2019, dated 2025).

For test [1], the target named is Human MER (residues 528-999) (Homo sapiens (Human), UniProt Q12866). Description: Human Mer kinase assay, HTRF KinEase (Example C-2). In kind it is biochemical. Conditions: protocol of Example C-2 (other compounds). The gist of the method:
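Recombinant MER 528-999 (1 ng/well) in buffer with 5 mM MgCl2 and 1 mM DTT was reacted with biotinylated peptide and ATP at Km (40 μM) for 60 min at room temperature. EDTA stop with SA-XL665 and Eu3+ TK antibody, then 665/620 nm HTRF read; IC50 from 4-parameter fit.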
For orientation: Time-resolved FRET reads energy transfer from a long-lived donor to a nearby acceptor.

The target of test [2] is Met (phospho-Met, HGF-stimulated PC-3 prostate cancer cells) (Homo sapiens (Human), UniProt P08581). Kind of test: Met autophosphorylation ELISA in PC-3 cells (Example F). In kind it is cell-based. As to conditions: cellular activity; Met autophosphorylation ELISA in PC-3 cells; read-out: c-Met IC50. An outline of the steps:
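Sandwich ELISA for phospho-Met (panTyr) in PC-3 lysates. Cells starved 3 h serum-free, compound 1 h (8-pt curve, 0.3% DMSO), HGF 100 ng/mL 10 min. 100% = HGF + DMSO; 0% = HGF + reference inhibitor. IC50 by 4-parameter fit.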
Background: ELISA stands for enzyme-linked immunosorbent assay.

Test [3] concerns the target Mer (phospho-Mer, MERTK-transfected 293A cells) (Homo sapiens (Human), UniProt Q12866). Kind of test: Mer autophosphorylation ELISA in transient transfected 293A cells (Example H). In kind it is cell-based. As to conditions: cellular activity; Mer autophosphorylation ELISA in transient transfected 293A cells. An outline of the steps:
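293A cells transiently transfected with human MERTK were treated 1 h in serum-free medium with an 8-point compound dilution (0.3% DMSO final). Lysates were assayed by phospho-Mer sandwich ELISA against a phospho-Mer standard; IC50 came from a 4-parameter logistic fit, normalised to DMSO (100%) and reference-inhibitor (0%) controls.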

Test [4] concerns the target Human KDR (residues 790-1356) (Homo sapiens (Human), UniProt P35968). Kind of test: Human KDR kinase assay, HTRF KinEase (Example B-2). Format: biochemical. As to conditions: protocol of Example B-2 (other compounds). The gist of the method:
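Human KDR residues 790-1356 (0.1 ng/well) in buffer with 5 mM MgCl2, 1 mM MnCl2, 1 mM DTT, biotinylated peptide substrate, ATP at Km (4.0 μM), 3% DMSO, 10 compound concentrations; 40 min, room temperature. EDTA stop, streptavidin-XL665/Eu-TK antibody HTRF read 665/620 nm; 4-parameter IC50.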

Chain of Met (phospho-Met, HGF-stimulated PC-3 prostate cancer cells) (P08581 25-1390): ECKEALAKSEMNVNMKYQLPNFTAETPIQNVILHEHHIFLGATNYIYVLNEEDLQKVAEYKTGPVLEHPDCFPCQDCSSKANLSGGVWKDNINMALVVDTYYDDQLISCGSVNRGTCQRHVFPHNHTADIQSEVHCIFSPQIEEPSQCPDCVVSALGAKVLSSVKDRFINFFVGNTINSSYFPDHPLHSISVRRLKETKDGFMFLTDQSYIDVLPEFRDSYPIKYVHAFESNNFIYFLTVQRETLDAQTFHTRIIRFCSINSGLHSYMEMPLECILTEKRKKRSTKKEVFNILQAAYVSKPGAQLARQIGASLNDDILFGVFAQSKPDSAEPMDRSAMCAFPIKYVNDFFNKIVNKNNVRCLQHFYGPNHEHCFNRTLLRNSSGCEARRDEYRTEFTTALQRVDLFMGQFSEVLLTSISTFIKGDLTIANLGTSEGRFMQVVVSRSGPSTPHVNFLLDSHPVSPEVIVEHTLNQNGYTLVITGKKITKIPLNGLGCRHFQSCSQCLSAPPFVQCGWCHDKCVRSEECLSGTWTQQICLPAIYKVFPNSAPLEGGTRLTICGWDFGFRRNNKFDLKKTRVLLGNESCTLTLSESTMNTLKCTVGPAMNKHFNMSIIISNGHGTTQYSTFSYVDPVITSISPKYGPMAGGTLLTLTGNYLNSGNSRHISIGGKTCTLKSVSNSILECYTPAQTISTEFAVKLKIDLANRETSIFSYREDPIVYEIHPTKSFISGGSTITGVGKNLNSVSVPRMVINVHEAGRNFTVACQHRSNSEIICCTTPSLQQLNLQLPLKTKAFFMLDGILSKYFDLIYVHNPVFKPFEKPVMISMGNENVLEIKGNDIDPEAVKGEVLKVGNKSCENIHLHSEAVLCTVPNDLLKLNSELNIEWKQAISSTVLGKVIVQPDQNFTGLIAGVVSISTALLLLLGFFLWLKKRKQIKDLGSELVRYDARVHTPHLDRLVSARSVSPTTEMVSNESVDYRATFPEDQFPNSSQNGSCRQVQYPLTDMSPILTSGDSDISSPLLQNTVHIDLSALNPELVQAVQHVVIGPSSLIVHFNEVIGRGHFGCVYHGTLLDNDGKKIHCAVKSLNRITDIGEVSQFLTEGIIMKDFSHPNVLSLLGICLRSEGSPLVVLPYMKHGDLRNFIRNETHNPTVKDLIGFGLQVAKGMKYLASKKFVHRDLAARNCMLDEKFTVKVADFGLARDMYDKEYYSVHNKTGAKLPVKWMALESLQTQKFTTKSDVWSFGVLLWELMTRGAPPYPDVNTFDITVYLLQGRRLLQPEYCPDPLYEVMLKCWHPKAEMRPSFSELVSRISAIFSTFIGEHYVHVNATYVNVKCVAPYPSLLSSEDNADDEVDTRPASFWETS
Chain of Mer (phospho-Mer, MERTK-transfected 293A cells) (Q12866 21-999): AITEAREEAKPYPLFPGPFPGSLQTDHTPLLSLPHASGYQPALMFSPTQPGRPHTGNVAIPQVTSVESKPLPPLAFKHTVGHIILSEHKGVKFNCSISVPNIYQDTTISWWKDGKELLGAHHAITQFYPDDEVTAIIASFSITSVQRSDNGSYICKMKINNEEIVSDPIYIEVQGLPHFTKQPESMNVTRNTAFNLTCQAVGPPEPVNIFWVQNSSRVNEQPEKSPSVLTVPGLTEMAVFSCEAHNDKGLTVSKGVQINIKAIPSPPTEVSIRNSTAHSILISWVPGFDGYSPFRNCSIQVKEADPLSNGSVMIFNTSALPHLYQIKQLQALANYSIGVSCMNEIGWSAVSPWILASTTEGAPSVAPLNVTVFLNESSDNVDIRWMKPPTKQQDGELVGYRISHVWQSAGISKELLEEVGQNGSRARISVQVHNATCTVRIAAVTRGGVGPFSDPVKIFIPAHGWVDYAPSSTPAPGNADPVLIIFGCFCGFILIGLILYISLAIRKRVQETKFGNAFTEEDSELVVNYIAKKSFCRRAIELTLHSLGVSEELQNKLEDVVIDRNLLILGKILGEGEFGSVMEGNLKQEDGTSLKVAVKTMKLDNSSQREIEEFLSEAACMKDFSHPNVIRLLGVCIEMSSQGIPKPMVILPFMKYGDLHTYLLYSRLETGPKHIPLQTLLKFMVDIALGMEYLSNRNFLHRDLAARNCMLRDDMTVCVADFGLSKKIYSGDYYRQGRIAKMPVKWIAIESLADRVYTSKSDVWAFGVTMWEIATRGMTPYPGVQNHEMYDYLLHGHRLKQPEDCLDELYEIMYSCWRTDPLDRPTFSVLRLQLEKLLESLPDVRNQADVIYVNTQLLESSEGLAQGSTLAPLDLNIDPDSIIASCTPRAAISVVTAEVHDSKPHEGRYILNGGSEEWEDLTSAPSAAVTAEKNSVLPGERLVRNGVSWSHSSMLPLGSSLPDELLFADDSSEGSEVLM
Chain of Human MER (residues 528-999) (Q12866 528-999): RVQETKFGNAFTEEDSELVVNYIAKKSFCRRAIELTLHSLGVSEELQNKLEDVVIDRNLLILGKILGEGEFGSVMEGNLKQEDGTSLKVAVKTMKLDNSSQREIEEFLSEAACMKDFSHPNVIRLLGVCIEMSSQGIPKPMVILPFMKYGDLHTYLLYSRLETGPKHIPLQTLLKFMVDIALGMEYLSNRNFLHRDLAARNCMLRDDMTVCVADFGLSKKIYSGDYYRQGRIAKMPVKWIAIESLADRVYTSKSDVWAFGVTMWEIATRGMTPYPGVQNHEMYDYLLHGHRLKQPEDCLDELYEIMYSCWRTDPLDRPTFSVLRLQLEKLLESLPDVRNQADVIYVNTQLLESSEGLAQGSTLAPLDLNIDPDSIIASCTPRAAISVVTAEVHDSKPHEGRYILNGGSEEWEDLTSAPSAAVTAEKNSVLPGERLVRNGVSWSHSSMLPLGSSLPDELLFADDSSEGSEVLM
Chain of Human KDR (residues 790-1356) (P35968 790-1356): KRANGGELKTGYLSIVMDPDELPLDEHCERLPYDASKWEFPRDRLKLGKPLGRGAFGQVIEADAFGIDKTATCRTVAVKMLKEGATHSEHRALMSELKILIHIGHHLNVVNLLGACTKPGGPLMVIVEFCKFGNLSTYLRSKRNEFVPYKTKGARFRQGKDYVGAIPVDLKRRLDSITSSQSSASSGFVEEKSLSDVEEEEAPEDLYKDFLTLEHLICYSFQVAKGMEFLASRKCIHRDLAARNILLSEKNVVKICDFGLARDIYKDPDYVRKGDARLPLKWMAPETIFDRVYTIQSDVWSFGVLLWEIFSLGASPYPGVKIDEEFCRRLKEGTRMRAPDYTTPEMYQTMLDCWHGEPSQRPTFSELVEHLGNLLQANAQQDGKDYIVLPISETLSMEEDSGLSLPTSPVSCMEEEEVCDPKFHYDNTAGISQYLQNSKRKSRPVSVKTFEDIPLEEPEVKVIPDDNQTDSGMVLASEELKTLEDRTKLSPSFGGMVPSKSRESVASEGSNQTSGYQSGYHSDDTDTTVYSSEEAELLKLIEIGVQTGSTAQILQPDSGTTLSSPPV

By IC50 is commonly meant the concentration that inhibits the measured activity by half. For the compound `COc1cc2nccc(Oc3ccc(NC(=O)c4ncc(C)n(-c5ccc(F)cc5)c4=O)cc3F)c2nc1OC` [Compound 93, N-[4-[(6,7-Dimethoxy-1,5-naphthyridin-4-yl)oxy]-3-fluorophenyl]-4-(4-fluorophenyl)-5-methyl-3-oxopyrazine-2-carboxamide], the IC50 in test [1], in test [2], in test [3] and in test [4] was less than 100 nM throughout.
In the case of `COc1cnc2c(Oc3ccc(NC(=O)c4ncc(C)n(-c5ccc(F)cc5)c4=O)cc3F)ccnc2c1` [Compound 94, N-[3-Fluoro-4-[(7-methoxy-1,5-naphthyridin-4-yl)oxy]phenyl]-4-(4-fluorophenyl)-5-methyl-3-oxopyrazine-2-carboxamide], the IC50 in test [1] is less than 100 nM; in test [2] it was less than 100 nM; in test [3] it was less than 100 nM; in test [4], greater than 300 nM.
On to `COc1cc2nccc(Oc3ccc(NC(=O)c4nc(C)c(C)n(-c5ccc(F)cc5)c4=O)cc3F)c2nc1OC` [Compound 95, N-[4-[(6,7-Dimethoxy-1,5-naphthyridin-4-yl)oxy]-3-fluorophenyl]-4-(4-fluorophenyl)-5,6-dimethyl-3-oxopyrazine-2-carboxamide], for which the IC50 in test [1] is less than 100 nM; in test [2] it was less than 100 nM; in test [3], less than 100 nM; in test [4], 100 to 300 nM.
With `COc1cc2nccc(Oc3ccc(NC(=O)c4ncnc(-c5ccc(F)cc5)c4O)cc3F)c2nc1OC` [Compound 96, N-[4-[(6,7-Dimethoxy-1,5-naphthyridin-4-yl)oxy]-3-fluorophenyl]-6-(4-fluorophenyl)-5-hydroxypyrimidine-4-carboxamide], the IC50 in test [1], in test [2], in test [3] and in test [4] was less than 100 nM in each case.
On to `COc1cc2nccc(Oc3ncc(NC(=O)c4cn(-c5cnn(C)c5)cc(-c5ccc(F)cc5)c4=O)cc3F)c2cc1OC` [Compound 401, N-[6-(6,7-dimethoxyquinolin-4-yl)oxy-5-fluoropyridin-3-yl]-5-(4-fluorophenyl)-1-(1-methylpyrazol-4-yl)-4-oxopyridine-3-carboxamide], for which the IC50 in test [1] is less than 100 nM; in test [2], less than 100 nM; in test [3], less than 100 nM; in test [4], greater than 300 nM.
As for `COc1cc2nccc(Oc3ncc(NC(=O)c4cn(-c5ccn(C)n5)cc(-c5ccc(F)cc5)c4=O)cc3F)c2cc1OC` [Compound 402, N-[6-(6,7-dimethoxyquinolin-4-yl)oxy-5-fluoropyridin-3-yl]-5-(4-fluorophenyl)-1-(1-methylpyrazol-3-yl)-4-oxopyridine-3-carboxamide], the IC50 in test [1] is less than 100 nM; in test [2], less than 100 nM; in test [3], less than 100 nM; in test [4] it was greater than 300 nM.
For the compound `CCOc1c(-c2ccc(F)cc2)cnc(C)c1C(=O)Nc1ccc(Oc2ccnc3cc(OC)c(OC)nc23)c(F)c1` [Compound 403, N-[4-[(6,7-dimethoxy-1,5-naphthyridin-4-yl)oxy]-3-fluorophenyl]-4-ethoxy-5-(4-fluorophenyl)-2-methylpyridine-3-carboxamide], the IC50 in test [1] was less than 100 nM; in test [2] it was less than 100 nM; in test [3], less than 100 nM; in test [4], greater than 300 nM.
In the case of `COc1cc2nccc(Oc3ccc(NC(=O)c4c5n(cc(-c6ccc(F)cc6)c4=O)CCC5)cc3)c2nc1OC` [Compound 407, N-[4-[(6,7-dimethoxy-1,5-naphthyridin-4-yl)oxy]phenyl]-6-(4-fluorophenyl)-7-oxo-2,3-dihydro-1H-indolizine-8-carboxamide], the IC50 was less than 100 nM in test [1], less than 100 nM in test [2], less than 100 nM in test [3] and 100 to 300 nM in test [4].
In the case of `CNC(=O)c1cc2c(Oc3ccc(NC(=O)c4c5n(cc(-c6ccc(F)cc6)c4=O)CCC5)cc3F)ccnc2cc1OC` [Compound 408, 4-[2-fluoro-4-[[6-(4-fluorophenyl)-7-oxo-2,3-dihydro-1H-indolizine-8-carbonyl]amino]phenoxy]-7-methoxy-N-methylquinoline-6-carboxamide], the IC50 in test [1], in test [2], in test [3] and in test [4] was less than 100 nM throughout.
Take `COc1cc2nccc(Oc3ccc(NC(=O)c4c5n(cc(-c6ccc(F)cc6)c4=O)CCC5)cc3F)c2cc1OC` [Compound 409, N-[4-(6,7-dimethoxyquinolin-4-yl)oxy-3-fluorophenyl]-6-(4-fluorophenyl)-7-oxo-2,3-dihydro-1H-indolizine-8-carboxamide]: the IC50 in test [1], in test [2], in test [3] and in test [4] was less than 100 nM in each case.
On to `CCn1cc(C(=O)Nc2ccc(Oc3ccnc4cc(O)cnc34)c(F)c2)c(=O)c(-c2ccc(F)cc2)c1C` [Compound 410, 1-ethyl-N-[3-fluoro-4-[(7-hydroxy-1,5-naphthyridin-4-yl)oxy]phenyl]-5-(4-fluorophenyl)-6-methyl-4-oxopyridine-3-carboxamide], for which the half-maximal inhibitory concentration (IC50) was less than 100 nM in test [1], 100 to 300 nM in test [2], 100 to 300 nM in test [3] and greater than 300 nM in test [4].
As to `COc1cnc2c(Oc3ccc(NC(=O)c4cn(C)c(Cl)c(-c5ccc(F)cc5)c4=O)cc3F)ccnc2c1` [Compound 411, 6-chloro-N-[3-fluoro-4-[(7-methoxy-1,5-naphthyridin-4-yl)oxy]phenyl]-5-(4-fluorophenyl)-1-methyl-4-oxopyridine-3-carboxamide], the IC50 in test [1] is less than 100 nM; in test [2] it was less than 100 nM; in test [3], less than 100 nM; in test [4], greater than 300 nM.
For `COc1cc2nccc(Oc3ccc(NC(=O)c4cn(C)c(Cl)c(-c5ccc(F)cc5)c4=O)cc3F)c2nc1OC` [Compound 412, 6-chloro-N-[4-[(6,7-dimethoxy-1,5-naphthyridin-4-yl)oxy]-3-fluorophenyl]-5-(4-fluorophenyl)-1-methyl-4-oxopyridine-3-carboxamide], the IC50 in test [1], in test [2], in test [3] and in test [4] was less than 100 nM in each case.
With `COc1cc2nccc(Oc3ccc(NC(=O)c4cnc(C)c(-c5ccc(F)cc5)c4O)cc3)c2nc1OC(C)C` [Compound 413, 5-(4-fluorophenyl)-4-hydroxy-N-[4-[(7-methoxy-6-propan-2-yloxy-1,5-naphthyridin-4-yl)oxy]phenyl]-6-methylpyridine-3-carboxamide], the IC50 in test [1], in test [2], in test [3] and in test [4] was less than 100 nM each time.
Turning to `COc1cc2nccc(Oc3ccc(NC(=O)c4cnc(C)c(-c5ccc(F)cc5C)c4O)cc3)c2nc1OC(C)C` [Compound 414, 5-(4-fluoro-2-methylphenyl)-4-hydroxy-N-[4-[(7-methoxy-6-propan-2-yloxy-1,5-naphthyridin-4-yl)oxy]phenyl]-6-methylpyridine-3-carboxamide], the IC50 in test [1] was less than 100 nM; in test [2] it was less than 100 nM; in test [3] it was less than 100 nM; in test [4] it was greater than 300 nM.
On to `COc1cc2nccc(Oc3ccc(NC(=O)c4cnc(C)c(-c5ccc(F)cc5)c4O)cc3F)c2nc1OC(C)C` [Compound 415, N-[3-fluoro-4-[(7-methoxy-6-propan-2-yloxy-1,5-naphthyridin-4-yl)oxy]phenyl]-5-(4-fluorophenyl)-4-hydroxy-6-methylpyridine-3-carboxamide], for which the half-inhibitory concentration (IC50) is less than 100 nM in test [1], less than 100 nM in test [2], less than 100 nM in test [3] and 100 to 300 nM in test [4].
On to `COc1cc2nccc(Oc3ccc(NC(=O)c4cnc(C)c(-c5ccc(F)cc5C)c4O)cc3F)c2nc1OC(C)C` [Compound 416, N-[3-fluoro-4-[(7-methoxy-6-propan-2-yloxy-1,5-naphthyridin-4-yl)oxy]phenyl]-5-(4-fluoro-2-methylphenyl)-4-hydroxy-6-methylpyridine-3-carboxamide], for which the IC50 in test [1] was less than 100 nM; in test [2], less than 100 nM; in test [3], less than 100 nM; in test [4] it was greater than 300 nM.
As for `COc1cnc2c(Oc3ccc(NC(=O)c4cnc(C)c(-c5c(C)cc(F)cc5C)c4O)cc3F)ccnc2c1` [Compound 417, 5-(4-fluoro-2,6-dimethylphenyl)-N-[3-fluoro-4-[(7-methoxy-1,5-naphthyridin-4-yl)oxy]phenyl]-4-hydroxy-6-methylpyridine-3-carboxamide], the IC50 is 100 to 300 nM in test [1], less than 100 nM in test [2], 100 to 300 nM in test [3] and greater than 300 nM in test [4].
